{
  "source": "paper PMC11358582",
  "about": "“Discovery of a potential bladder cancer inhibitor CHNQD-01281 by regulating EGFR and promoting infiltration of cytotoxic T cells” (Marine Life Science & Technology, 2024)",
  "key": {"[1]": {"system": "J82 cell line", "assay": "Wound healing assay (migration)", "type": "cell-based, human", "details": "J82, 0.16 µmol/L, 24 h", "procedure": "(§1) Fig. 3 Effects of CHNQD-01281 on colony formation and migration of T24 and J82 cell lines. A T24 and J82 cell lines were cultured for 12 days with varying concentrations of CHNQD-01281 (0−0.16 μmol/L) and colonies were fixed and dyed with 0.1% crystal violet. B The relative colony numbers are shown. C Scratches of T24 and J82 cell colonies were generated with pipette tips (200 μL). After 24 h of incubation with 0−0.16 μmol/L CHNQD-01281, representative images were captured. D Histograms display the healed rate. Data are represented as the mean ± SD of three independent experiments. **P < 0.01, ***P < 0.001 and ****P < 0.0001 versus the 0 μmol/L group\n(§2) Metastasis and invasiveness are important indications for progression of bladder cancer. […] At the concentration of 0.16 µmol/L, the healed rate of T24 and J82 was 21% and 29%, respectively."}, "[2]": {"system": "T24 cell line", "assay": "Wound healing assay (migration)", "type": "cell-based, human", "details": "T24, 0.16 µmol/L, 24 h", "procedure": "as §1, §2"}, "[3]": {"system": "EGFR", "assay": "Western blot of EGFR expression in J82 cells", "type": "cell-based, human", "details": "J82, 0.16 µmol/L, versus control", "procedure": "(§3) T24 and J82 cell lines were lysed in protein lysis buffer, which included phosphatase inhibitors and a cocktail of protease inhibitors. A BCA kit (SparkJade, China) was used to determine the total protein concentration. After protein denaturation, SDS-PAGE electrophoresis was performed and the protein transferred from the gel to a PVDF membrane (Millipore, USA). Then primary antibodies against cleaved caspases-3, cleaved PARP, AKT, phosphorylated AKT, ERK1/2, phosphorylated ERK1/2, EGFR, mTOR, phosphorylated mTOR and Tubulin (CST, USA) were diluted at 1:1000 at 4 °C overnight. The membranes were then washed and incubated with secondary antibodies dissolved in 5% nonfat milk. A chemiluminescence imaging system was used to detect the signals (Tanon, China).\n(§4) EGFR is overexpressed in malignant urothelial cells, which is associated with the deterioration, invasiveness and metastasis of tumors. It is a potential therapeutic target for bladder carcinoma. Therefore, we examined the expression of EGFR and its downstream proteins after treating bladder cancer cells with CHNQD-01281 (Supplementary Fig. S11). […] Taken together, CHNQD-01281 inhibited the proliferation of bladder cancer cells and induced apoptosis through EGFR/PI3K/AKT and EGFR/ERK pathways to exert antitumor effects."}, "[4]": {"system": "p-ERK/ERK", "assay": "Western blot of EGFR downstream proteins", "type": "cell-based, human", "details": "0.16 µmol/L", "procedure": "as §3, §4"}, "[5]": {"system": "p-mTOR/mTOR", "assay": "Western blot of EGFR downstream proteins", "type": "cell-based, human", "details": "0.16 µmol/L", "procedure": "as §3, §4"}, "[6]": {"system": "p-AKT/AKT", "assay": "Western blot of EGFR downstream proteins", "type": "cell-based, human", "details": "0.16 µmol/L", "procedure": "as §3, §4"}, "[7]": {"system": "cleaved PARP", "assay": "Western blot of apoptosis-related protein", "type": "cell-based, human", "details": "Fig. S11b", "procedure": "as §3\n(§5) Furthermore, treatment with CHNQD-01281 induced a dose-dependent increase in the total apoptosis of T24 and J82 cell lines. […] Meanwhile, the expression of apoptosis-related proteins cleaved PARP and cleaved caspase-3 were detected by Western blot. […] Therefore, CHNQD-01281 can induce DNA damage to arrest the cell cycle at the G0/G1 phase, affect the expression of DNA damage repair enzyme PARP, and finally induce apoptosis of bladder cancer cell lines."}, "[8]": {"system": "cleaved caspase-3", "assay": "Western blot of apoptosis-related protein", "type": "cell-based, human", "details": "Fig. S11b", "procedure": "as §3, §5"}, "[9]": {"system": "EGFR", "assay": "Western blot of EGFR expression in T24 cells", "type": "cell-based, human", "details": "T24, 0.16 µmol/L, versus control", "procedure": "as §3, §4"}, "[10]": {"system": "MB49 tumor", "assay": "MB49 homologous (syngeneic) tumor model", "type": "in vivo, C57BL/6 mice", "procedure": "Specific pathogen free (SPF)-grade C57BL/6 mice and BALB/c-nu mice were purchased from Jinan Pengyue Experimental Animal Center (license No. SCXK 20190003). The protocol was approved by the Research Review Committee of the Ocean University of China. All mice were housed in 12-h light and 12-h dark conditions in which the humidity was 50% ± 10% and the temperature was 22 ± 2 °C. All mice had free access to food and water. The human bladder cancer cell line T24 was injected subcutaneously into BALB/c-nu mice to construct a xenograft tumor model. The cell suspension of mouse bladder cancer cell line MB49 was injected into C57BL/6 mice subcutaneously to construct a syngeneic tumor model.\nFixed tissues were embedded in paraffin and then sectioned. The specimens were incubated with antibodies against Ki67, CD3, CD4, CD8 (Servicebio, China) and EGFR (ABclonal, China) at 4 °C overnight. The next day, the slides were washed with 1 × PBST three times for 5 min each and stained with the secondary antibodies and Hoechst 33342 dye (Beyotime, China) for 60 min for IF. For IHC staining, the sections were developed with a rabbit/mouse HRP kits (DAB) (Beyotime, China) according to the manufacturer’s instructions.\nIn addition, apoptosis, necrosis, and increased eosinophil cytoplasm were observed and there was a large number of lymphocyte infiltration in the treatment group."}, "[11]": {"system": "J82 cell line", "assay": "Colony formation assay", "type": "cell-based", "details": "Homo sapiens, 288 h, 12 days, read-out: inhibition rate on colony formation", "procedure": "(§6) T24 and J82 cell lines were seeded in 6-well plates at 500 cells/well. The cells were cultured overnight in medium. Compound CHNQD-01281 was added according to the concentration gradient, and the cells were placed in a 37 °C cell incubator containing 5% CO2 for 12 days. The cells were then fixed with 4% paraformaldehyde for 15 min and stained with crystal violet for 30 min. After that, pictures were taken and colony numbers were counted. The clone formation rate relative to the solvent control group was calculated.\n(§7) Cell proliferation ability was also detected by colony formation assay (Kabakov et al. [2018]), and the results are shown in Fig. 3A−B. CHNQD-01281 was applied for 12 days to detect long-term proliferation inhibition of T24 and J82 cell lines."}, "[12]": {"system": "T24 cell line", "assay": "Colony formation assay", "type": "cell-based", "details": "Homo sapiens, T-24, 288 h, 12 days, read-out: inhibition rate on colony formation", "procedure": "as §6, §7"}},
  "data": [
    {"smiles": "C[C@H]1CCC/C=C/[C@@H]2C[C@H](O)C[C@H]2[C@H](OC(=O)/C=C/c2cccnc2)/C=C/C(=O)O1", "note": "[CHNQD-01281, Brefeldin A 4-O-3-(pyridin-3-yl) acrylate]", "values": [
      {"measurement": "healed rate", "setting": "[1]", "value": 29, "unit": "%"},
      {"measurement": "healed rate", "setting": "[2]", "value": 21, "unit": "%"},
      {"measurement": "maximum down-regulation of EGFR expression", "setting": "[3]", "value": 87.61, "unit": "%"},
      {"measurement": "decrease of p-ERK/ERK expression level", "setting": "[4]", "value": 96.95, "unit": "%"},
      {"measurement": "decrease of p-mTOR/mTOR expression level", "setting": "[5]", "value": 60.36, "unit": "%"},
      {"measurement": "decrease of p-AKT/AKT expression level", "setting": "[6]", "value": 99.96, "unit": "%"},
      {"measurement": "maximum expression level of cleaved PARP", "setting": "[7]", "value": "0.95 fold of the control group"},
      {"measurement": "maximum expression level of cleaved caspase-3", "setting": "[8]", "value": "1.23 fold of the control group"},
      {"measurement": "maximum down-regulation of EGFR expression", "setting": "[9]", "value": 77.61, "unit": "%"},
      {"measurement": "mice with tumor disappearance", "setting": "[10]; 10 mg/kg intratumoral, no recurrence within 30 days after cessation", "value": 20, "unit": "%"},
      {"measurement": "life prolongation rate (ILS)", "setting": "[10]; 10 mg/kg, intratumoral injection, QD", "value": 68.16, "unit": "%"},
      {"measurement": "infiltration of CD3+, CD4+ and CD8+ T cells (immunofluorescence)", "setting": "[10]; 10 mg/kg, intratumoral injection, QD, tumor tissue", "value": "significantly increased"},
      {"measurement": "inhibition at 0.04 µM", "setting": "[11]; J82, 0.04 µmol/L", "value": 25.1, "unit": "%"},
      {"measurement": "inhibition at 0.08 µM", "setting": "[11]; J82, 0.08 µmol/L", "value": 58.3, "unit": "%"},
      {"measurement": "inhibition at 0.16 µM", "setting": "[11]; J82, 0.16 µmol/L", "value": 85.9, "unit": "%"},
      {"measurement": "inhibition at 0.04 µM", "setting": "[12]; T24, 0.04 µmol/L", "value": 17, "unit": "%"},
      {"measurement": "inhibition at 0.08 µM", "setting": "[12]; T24, 0.08 µmol/L", "value": 52.5, "unit": "%"},
      {"measurement": "inhibition at 0.16 µM", "setting": "[12]; T24, 0.16 µmol/L", "value": 95.5, "unit": "%"}
    ]}
  ]
}
